Paper PMC10366102, “Dose escalation and expansion cohorts in patients with advanced breast cancer in a Phase I study of the CDK7-inhibitor samuraciclib” (Nature Communications, 2023)
Where two headings read alike, the source gives them in different places.

Test system: patients with advanced/metastatic solid tumors
Details: for TEAE: Upper respiratory tract infection / TEAE: Urinary tract infection: Module 1A
Text: In this Phase I study (ClinicalTrials.gov: NCT03363893), male and female patients with locally advanced/metastatic solid tumors received samuraciclib in dose escalation cohorts (at least 3 and up to 6 evaluable patients permitted per dose cohort) to determine the MTD (see Supplementary Information for definition). An additional 6 to 12 male or female patients with breast cancer were enrolled to a paired biopsy cohort to evaluate the pharmacodynamic effects of samuraciclib in tumor tissue, initiated after determining the minimally biologically active dose, defined by a 25-30% reduction in signal for pPolII in lymphocytes after 21 days of dosing or more.
For inclusion in the paired biopsy cohort, only patients with breast cancer with lesions amenable to biopsy were recruited. A full list of inclusion/exclusion criteria is provided in the Supplementary Information.
Patients initially received an oral dose of samuraciclib at Cycle 0, Day 1 for PK evaluation, followed by a 48-hour interval then continuous daily dosing for 21 days (Cycle 1). Dosing continued in 21-day cycles until the patient no longer gained clinical benefit or had intolerable toxicity. At least 3 evaluable patients in a cohort had to complete Cycle 1 before any dose escalation was considered.
As Module 1A was a ‘first time in human’ safety study, initial efficacy was evaluated as a secondary endpoint using the DCR, defined as the percentage of patients with a complete response (CR), PR or stabilization of disease at first on treatment RECIST assessment. To allow for the evaluation of longer-term benefit, Module 1B-1 and Module 2A used the CBR as a secondary endpoint, defined as the percentage of patients with CR or PR or stabilization of disease for at least 24 weeks between enrollment and disease progression or death due to any cause. In addition, the ORR was assessed, defined as the percentage of patients who had at least 1 objective response (CR or PR) prior to any evidence of progression. […] Statistical analyses of PFS using the Kaplan-Meier method were performed on the ITT population - defined as all enrolled patients. AEs were summarized from the Safety Population - defined as all patients who received at least 1 dose of samuraciclib - using the MedDRA system organ class (SOC), preferred term (PT), and graded according to CTCAE V5.0 (Supplementary Information). […]
In the Module 1A dose escalation cohort, patients initially received 1 oral dose of samuraciclib at Cycle 0, Day 1. In the absence of a dose-limiting toxicity (DLT) and following a washout period of at least 48 hours, patients could then enter Cycle 1 and receive samuraciclib daily. In the continued absence of a DLT, each patient could continue to receive samuraciclib daily for a minimum of 21 days (Cycle 1) and could continue to receive additional 21-day cycles of treatment until they were no longer gaining […]
treatment visit was conducted (within 3 days after the last samuraciclib dose). An end of study visit was conducted 28 to 35 days after the last dose of samuraciclib.
At least 3 and up to 6 evaluable patients were required for each dose cohort. At least 3 evaluable patients in a cohort had to complete at least one 21-day cycle of dosing before a Safety Review Committee (SRC), composed of study site investigators and Sponsor medical personnel, could review and initiate the next cohort and dose escalation. Within the initial cohorts there was a staggered interval, with subsequent patients not being dosed until the first patient within each cohort had completed 7 days of samuraciclib monotherapy.
Patient enrolment in the dose escalation cohort proceeded according to a Bayesian model rolling 6 […]
2. If 1 patient experienced a DLT in a group of 3 or more evaluable patients, then the cohort was expanded to include 6 evaluable patients. […]
dose escalation occurred.
3. If at least 2 patients experienced a DLT in a cohort of up to 6 patients, irrespective of the number of […]

For CC(C)c1cnn2c(NCc3ccccc3)cc(NC[C@H]3CCNC[C@@H]3O)nc12 [samuraciclib, Samuraciclib], the “TEAE: Upper respiratory tract infection” value (120 mg OD N=6) was 5 (83.3) participants (%), the “TEAE: Urinary tract infection” value (120 mg OD N=6) was 0 participants (%) and the “TEAE: Upper respiratory tract infection” value (240 mg OD N=12) was 1 (8.3) participants (%). The “TEAE: Urinary tract infection” value (240 mg OD N=12) was 1 (8.3) participants (%), the “TEAE: Upper respiratory tract infection” value (360 mg OD N=12) was 1 (8.3) participants (%) and the “TEAE: Urinary tract infection” value (360 mg OD N=12) was 1 (8.3) participants (%). For the same compound, the “TEAE: Upper respiratory tract infection” value (480 mg OD N=6) was 0 participants (%), the “TEAE: Urinary tract infection” value (480 mg OD N=6) was 1 (16.7) participants (%) and the “Lowest dose tested in humans that has demonstrated biological activity” value (OD) was 120 mg. The “MBAD originally declared by the SRC” value (OD) was 240 mg, the Non-tolerated dose (OD in a fasted state) was 480 mg and the “ALT increased; All AEs” value (both, human, in vivo) was 8 (18.2) patients (%). For the same compound, the “ALT increased; Grade ≥3” value (both, human, in vivo) was 1 (2.3) patients (%), the “AST increased; All AEs” value (both, human, in vivo) was 7 (15.9) patients (%) and the “AST increased; Grade ≥3” value (both, human, in vivo) was 0 patients (%). The “Abdominal pain upper; All AEs” value (both, human, in vivo) was 4 (9.1) patients (%), the “Abdominal pain upper; Grade ≥3” value (both, human, in vivo) was 0 patients (%) and the “Abdominal pain; All AEs” value (both, human, in vivo) was 12 (27.3) patients (%). For the same compound, the “Abdominal pain; Grade ≥3” value (both, human, in vivo) was 0 patients (%), the “Anemia; All AEs” value (both, human, in vivo) was 10 (22.7) patients (%) and the “Anemia; Grade ≥3” value (both, human, in vivo) was 2 (4.5) patients (%). For the same compound, the “Any treatment-emergent AE; All AEs” value (both, human, in vivo) was 44 (100.0) patients (%), the “Any treatment-emergent AE; Grade ≥3” value (both, human, in vivo) was 21 (47.7) patients (%) and the “Back pain; All AEs” value (both, human, in vivo) was 6 (13.6) patients (%). The “Back pain; Grade ≥3” value (both, human, in vivo) was 0 patients (%), the “Constipation; All AEs” value (both, human, in vivo) was 7 (15.9) patients (%) and the “Constipation; Grade ≥3” value (both, human, in vivo) was 0 patients (%). The “Cough; All AEs” value (both, human, in vivo) was 8 (18.2) patients (%), the “Cough; Grade ≥3” value (both, human, in vivo) was 0 patients (%) and the “Decreased appetite; All AEs” value (both, human, in vivo) was 9 (20.5) patients (%). The “Decreased appetite; Grade ≥3” value (both, human, in vivo) was 1 (2.3) patients (%), the “Diarrhea; All AEs” value (both, human, in vivo) was 38 (86.4) patients (%) and the “Diarrhea; Grade ≥3” value (both, human, in vivo) was 2 (4.5) patients (%). For the same compound, the “Dizziness; All AEs” value (both, human, in vivo) was 2 (4.5) patients (%), the “Dizziness; Grade ≥3” value (both, human, in vivo) was 0 patients (%) and the “Drug-related: ALT increased” value (both, human, in vivo) was 3 (6.8) participants (%). The “Drug-related: AST increased” value (both, human, in vivo) was 4 (9.1) participants (%), the “Drug-related: Abdominal pain” value (both, human, in vivo) was 8 (18.2) participants (%) and the “Drug-related: Abdominal pain upper” value (both, human, in vivo) was 2 (4.5) participants (%). For the same compound, the “Drug-related: Anaemia” value (both, human, in vivo) was 3 (6.8) participants (%), the “Drug-related: Blood creatinine increased” value (both, human, in vivo) was 3 (6.8) participants (%) and the “Drug-related: Decreased appetite” value (both, human, in vivo) was 8 (18.2) participants (%). For the same compound, the “Drug-related: Dehydration” value (both, human, in vivo) was 2 (4.5) participants (%), the “Drug-related: Diarrhoea” value (both, human, in vivo) was 36 (81.8) participants (%) and the “Drug-related: Dry mouth” value (both, human, in vivo) was 2 (4.5) participants (%). The “Drug-related: Dyspepsia” value (both, human, in vivo) was 2 (4.5) participants (%), the “Drug-related: Dysphagia” value (both, human, in vivo) was 2 (4.5) participants (%) and the “Drug-related: Fatigue” value (both, human, in vivo) was 14 (31.8) participants (%). The “Drug-related: Gastroesophageal reflux disease” value (both, human, in vivo) was 3 (6.8) participants (%), the “Drug-related: Mucosal inflammation” value (both, human, in vivo) was 2 (4.5) participants (%) and the “Drug-related: Nausea” value (both, human, in vivo) was 34 (77.3) participants (%). The “Drug-related: Thrombocytopenia” value (both, human, in vivo) was 3 (6.8) participants (%), the “Drug-related: Vomiting” value (both, human, in vivo) was 35 (79.5) participants (%) and the “Drug-related: Weight decreased” value (both, human, in vivo) was 4 (9.1) participants (%). The “Dysgeusia; All AEs” value (both, human, in vivo) was 1 (2.3) patients (%), the “Dysgeusia; Grade ≥3” value (both, human, in vivo) was 0 patients (%) and the “Dysphagia; All AEs” value (both, human, in vivo) was 2 (4.5) patients (%). The “Dysphagia; Grade ≥3” value (both, human, in vivo) was 0 patients (%), the “Dyspnea; All AEs” value (both, human, in vivo) was 6 (13.6) patients (%) and the “Dyspnea; Grade ≥3” value (both, human, in vivo) was 2 (4.5) patients (%). The “Fatigue; All AEs” value (both, human, in vivo) was 17 (38.6) patients (%), the “Fatigue; Grade ≥3” value (both, human, in vivo) was 0 patients (%) and the “Grade ≥3: GGT increased” value (both, human, in vivo) was 2 (4.5) participants (%). The “Grade ≥3: Malignant neoplasm progression” value (both, human, in vivo) was 2 (4.5) participants (%), the “Grade ≥3: Pulmonary embolism” value (both, human, in vivo) was 2 (4.5) participants (%) and the “Grade ≥3: Thrombocytopenia” value (both, human, in vivo) was 2 (4.5) participants (%). For the same compound, the “Headache; All AEs” value (both, human, in vivo) was 4 (9.1) patients (%), the “Headache; Grade ≥3” value (both, human, in vivo) was 0 patients (%) and the “Hyperglycemia; All AEs” value (both, human, in vivo) was 1 (2.3) patients (%). For the same compound, the “Hyperglycemia; Grade ≥3” value (both, human, in vivo) was 0 patients (%), the “Hypocalcaemia; All AEs” value (both, human, in vivo) was 2 (4.5) patients (%) and the “Hypocalcaemia; Grade ≥3” value (both, human, in vivo) was 0 patients (%). The “Hypokalaemia; All AEs” value (both, human, in vivo) was 0 patients (%), the “Hypokalaemia; Grade ≥3” value (both, human, in vivo) was 0 patients (%) and the “Nausea; All AEs” value (both, human, in vivo) was 34 (77.3) patients (%). For the same compound, the “Nausea; Grade ≥3” value (both, human, in vivo) was 0 patients (%), the “Participants with any drug-related TEAE” value (both, human, in vivo) was 44 (100.0) participants (%) and the “Rash; All AEs” value (both, human, in vivo) was 1 (2.3) patients (%). The “Rash; Grade ≥3” value (both, human, in vivo) was 0 patients (%), the “Stomatitis; All AEs” value (both, human, in vivo) was 1 (2.3) patients (%) and the “Stomatitis; Grade ≥3” value (both, human, in vivo) was 0 patients (%). For the same compound, the “Taste disorder; All AEs” value (both, human, in vivo) was 0 patients (%), the “Taste disorder; Grade ≥3” value (both, human, in vivo) was 0 patients (%) and the “Thrombocytopenia reported as Grade ≥3” value (both, human, in vivo) was 2 patients. The “Upper respiratory tract infection; All AEs” value (both, human, in vivo) was 8 (18.2) patients (%), the “Upper respiratory tract infection; Grade ≥3” value (both, human, in vivo) was 0 patients (%) and the “Urinary tract infection; All AEs” value (both, human, in vivo) was 5 (11.4) patients (%). For the same compound, the “Urinary tract infection; Grade ≥3” value (both, human, in vivo) was 0 patients (%), the “Vomiting; All AEs” value (both, human, in vivo) was 36 (81.8) patients (%) and the “Vomiting; Grade ≥3” value (both, human, in vivo) was 1 (2.3) patients (%). The “Weight decreased; All AEs” value (both, human, in vivo) was 4 (9.1) patients (%), the “Weight decreased; Grade ≥3” value (both, human, in vivo) was 1 (2.3) patients (%) and the “DLT: Decreased appetite” value (both, human, in vivo, 21 days) was 1 (3.0) patients (%). For the same compound, the “DLT: Diarrhoea” value (both, human, in vivo, 21 days) was 1 (3.0) patients (%), the “DLT: Gastroesophageal reflux disease” value (both, human, in vivo, 21 days) was 1 (3.0) patients (%) and the “DLT: Nausea” value (both, human, in vivo, 21 days) was 1 (3.0) patients (%). For the same compound, the “DLT: Oesophagitis” value (both, human, in vivo, 21 days) was 1 (3.0) patients (%), the “DLT: Stomatitis” value (both, human, in vivo, 21 days) was 1 (3.0) patients (%) and the “DLT: Thrombocytopenia” value (both, human, in vivo, 21 days) was 1 (3.0) patients (%). The “DLT: Vomiting” value (both, human, in vivo, 21 days) was 2 (6.1) patients (%), the “DLT: Weight decreased” value (both, human, in vivo, 21 days) was 1 (3.0) patients (%) and the “Patients with a dose-limiting toxicity” value (both, human, in vivo, 21 days) was 3/6. The “Patients with any DLT” value (both, human, in vivo, 21 days) was 6 (18.2) patients (%), the “Drug-related: Oral pain” value (both, human, in vivo, po) was 2 (4.5) participants (%) and the “Drop in platelet counts” value (during therapy, over the first 15 days then plateau, 240 mg OD and 360 mg OD) was roughly 20%. The “Maximum tolerated dose (MTD)” value (once daily, monotherapy) was 360 mg.
